Our source for the IC50, EC50 and melting point values is US8436000B2, “Substituted carbamate derivatives as modulators of corticotropin-releasing factor receptor activity” (Bristol-Myers Squibb Company, priority 2008, dated 2013).

For the first data set, the target named is T1, CRF1 (Rattus norvegicus, UniProt P35353).
T1 construct: Frozen rat frontal cortex was thawed rapidly in assay buffer; tissue Analytical Biological Services, Inc. (Wilmington, Del.); host or cells: rat frontal cortex
T1 sequence (P35353 24-415): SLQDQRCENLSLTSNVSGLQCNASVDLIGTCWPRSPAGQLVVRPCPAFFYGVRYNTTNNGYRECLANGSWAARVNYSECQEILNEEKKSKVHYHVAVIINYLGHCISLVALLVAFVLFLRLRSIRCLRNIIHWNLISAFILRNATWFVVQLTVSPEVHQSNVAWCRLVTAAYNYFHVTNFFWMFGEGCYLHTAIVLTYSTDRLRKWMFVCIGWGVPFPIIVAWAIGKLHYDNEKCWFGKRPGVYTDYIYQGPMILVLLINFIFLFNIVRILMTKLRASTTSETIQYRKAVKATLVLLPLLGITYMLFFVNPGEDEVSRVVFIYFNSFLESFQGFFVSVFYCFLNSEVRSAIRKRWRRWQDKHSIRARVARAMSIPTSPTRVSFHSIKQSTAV
Nature of the data set: CRF1 Binding Assay (125I-ovine-CRF displacement, rat frontal cortex homogenate). The settings on record: 125I-o-CRF, class symbols. The protocol: Frozen rat frontal cortex was thawed rapidly in assay buffer containing 50 mM Hepes (pH 7.0 at 23° C.), 10 mM MgCl2, 2 mM EGTA, 1 μg/ml aprotinin, 1 μg/ml leupeptin, 1 Mg/ml pepstatin A, 0.005% Triton X-100, 10 U/ml bacitracin and 0.1% ovalbumin and homogenized. The suspension was centrifuged at 32000×g for 30 minutes. The resulting supernatant was discarded and the pellet resuspended by homogenization in assay buffer and centrifuged again. The supernatant was discarded and the pellet resuspended by homogenization in assay buffer and frozen at −70° C. On the day of the experiment aliquots of the homogenate were thawed quickly and 25 μg/well added to […] ^125I-ovine-CRF (^125I-o-CRF) and drugs in a total volume of 100 μl assay buffer. The assay mixture was incubated for 2 hr at 21° C. Bound and free radioligand were then separated by rapid filtration using glass fiber filters (Whatman GF/B, pretreated with 0.3% PEI (polyethylenimine)) on a Brandel Cell Harvester. Filters were then washed multiple times with ice cold wash buffer (PBS w/o Ca^2+ and Mg^2+, 0.01% Triton X-100; pH 7.0 at 23° C.). Non-specific binding was defined using 1 μM DMP696, a CRF1 selective antagonist [Li, Y-W. et al., CNS Drug Reviews 11: 21-52, (2005)]. Filters were then counted in a Wallac Wizard gamma counter. IC50 values were determined in a five point (five drug concentrations) or ten point (ten drug concentrations) competition assay using non-linear regression by Microsoft Excel-fit. Rat frontal cortex was obtained from Analytical Biological Services, Inc. (Wilmington, Del.). ^125I-ovine-CRF (2200 Ci/mmol) was obtained from PerkinElmer Life Sciences, Inc. (Boston, Mass.).
`COc1nc(C)c(Nc2nc(Cl)cn([C@H](COC(=O)Nc3ccccc3)C3CC3)c2=O)cc1C` [Example 1, (S)-2-(5-Chloro-3-(6-methoxy-2,5-dimethylpyridin-3-ylamino)-2-oxopyrazin-1(2H)-yl)-2-cyclopropylethyl phenylcarbamate]: the concentration for half-maximal inhibition (IC50) lay in the range of 0.1 to 100 nM.

Regarding `COc1nc(C)c(Nc2nc(Cl)cn([C@H](COC(=O)Nc3cccc(C#N)c3)C3CC3)c2=O)cc1C` [Example 2, (S)-2-(5-Chloro-3-(6-methoxy-2,5-dimethylpyridin-3-ylamino)-2-oxopyrazin-1(2H)-yl)-2-cyclopropylethyl 3-cyanophenylcarbamate], the concentration for half-maximal inhibition (IC50) fell in the range of 0.1 to 100 nM.

For `COc1nc(C)c(Nc2nc(Cl)cn([C@H](COC(=O)Nc3cccnc3)C3CC3)c2=O)cc1C` [Example 3, (S)-2-(5-Chloro-3-(6-methoxy-2,5-dimethylpyridin-3-ylamino)-2-oxopyrazin-1(2H)-yl)-2-cyclopropylethyl pyridin-3-ylcarbamate], the 50% inhibitory concentration (IC50) lay within 0.1 to 100 nM.

For `COc1nc(C)c(Nc2nc(Cl)cn([C@H](COC(=O)Nc3ccccc3Cl)C3CC3)c2=O)cc1C` [Example 4, (S)-2-(5-Chloro-3-(6-methoxy-2,5-dimethylpyridin-3-ylamino)-2-oxopyrazin-1(2H)-yl)-2-cyclopropylethyl 2-chlorophenylcarbamate], the IC50 was in the range of 0.1 to 100 nM.

As to `COc1nc(C)c(Nc2nc(Cl)cn([C@H](COC(=O)Nc3ccc(Cl)cc3)C3CC3)c2=O)cc1C` [Example 5, (S)-2-(5-Chloro-3-(6-methoxy-2,5-dimethylpyridin-3-ylamino)-2-oxopyrazin-1(2H)-yl)-2-cyclopropylethyl 4-chlorophenylcarbamate], the IC50 lay in the range of 0.1 to 100 nM.

As for `COc1nc(C)c(Nc2nc(Cl)cn([C@H](COC(=O)Nc3cc(Cl)cc(Cl)c3)C3CC3)c2=O)cc1C` [Example 6, (S)-2-(5-Chloro-3-(6-methoxy-2,5-dimethylpyridin-3-ylamino)-2-oxopyrazin-1(2H)-yl)-2-cyclopropylethyl 3,5-dichlorophenylcarbamate], the IC50 lay in the range of 0.1 to 100 nM.

As to `COc1nc(C)c(Nc2nc(Cl)cn([C@H](COC(=O)Nc3ccc(Cl)cc3Cl)C3CC3)c2=O)cc1C` [Example 7, (S)-2-(5-Chloro-3-(6-methoxy-2,5-dimethylpyridin-3-ylamino)-2-oxopyrazin-1(2H)-yl)-2-cyclopropylethyl 2,4-dichlorophenylcarbamate], the IC50 lay within 0.1 to 100 nM.

The compound `CCCNC(=O)OC[C@H](C1CC1)n1cc(Cl)nc(Nc2cc(C)c(OC)nc2C)c1=O` [Example 9, (S)-2-(5-Chloro-3-(6-methoxy-2,5-dimethylpyridin-3-ylamino)-2-oxopyrazin-1(2H)-yl)-2-cyclopropylethyl propylcarbamate] returned a half-maximal inhibitory concentration (IC50) of 0.1 to 100 nM.

Compound `CCNC(=O)OC[C@H](C1CC1)n1cc(Cl)nc(Nc2cc(C)c(OC)nc2C)c1=O` [Example 10, (S)-2-(5-Chloro-3-(6-methoxy-2,5-dimethylpyridin-3-ylamino)-2-oxopyrazin-1(2H)-yl)-2-cyclopropylethyl ethylcarbamate] gave an IC50 of 0.1 to 100 nM.

Turning to `COc1nc(C)c(NC(=O)OC[C@H](C2CC2)n2cc(Cl)nc(Nc3cc(C)c(OC)nc3C)c2=O)cc1C` [Example 12, (S)-2-(5-Chloro-3-(6-methoxy-2,5-dimethylpyridin-3-ylamino)-2-oxopyrazin-1(2H)-yl)-2-cyclopropyl ethyl 6-methoxy-2,5-dimethylpyridin-3-ylcarbamate], the IC50 was 0.1 to 100 nM.

With `COc1ccc(NC(=O)OC[C@H](C2CC2)n2cc(Cl)nc(Nc3cc(C)c(OC)nc3C)c2=O)c(C)n1` [Example 13, (S)-2-(5-Chloro-3-(6-methoxy-2,5-dimethylpyridin-3-ylamino)-2-oxopyrazin-1(2H)-yl)-2-cyclopropylethyl 6-methoxy-2-dimethylpyridin-3-ylcarbamate], the IC50 lay within 0.1 to 100 nM.

`Cc1cc(Nc2nc(Cl)cn([C@H](COC(=O)Nc3cccnc3)C3CC3)c2=O)c(C)nc1OC(F)F` [Example 15, (S)-2-(5-Chloro-3-(6-(difluoromethoxy)-2,5-dimethylpyridin-3-ylamino)-2-oxopyrazin-1(2H)-yl)-2-cyclopropylethyl pyridin-3-ylcarbamate] showed an IC50 of 0.1 to 100 nM.

The same data set, now with this note: 125I-o-CRF, numeric values.
As for `CCCCNC(=O)OC[C@H](C1CC1)n1cc(Cl)nc(Nc2cc(C)c(OC)nc2C)c1=O` [Example 8, (S)-2-(5-Chloro-3-(6-methoxy-2,5-dimethylpyridin-3-ylamino)-2-oxopyrazin-1(2H)-yl)-2-cyclopropylethyl butylcarbamate], the IC50 worked out at 4.74 nM.

For the compound `CCOc1nc(C)c(NC(=O)OC[C@H](C2CC2)n2cc(Cl)nc(Nc3cc(C)c(OC)nc3C)c2=O)cc1C` [Example 11, (S)-2-(5-Chloro-3-(6-methoxy-2,5-dimethylpyridin-3-ylamino)-2-oxopyrazin-1(2H)-yl)-2-cyclopropylethyl 6-ethoxy-2,5-dimethylpyridin-3-ylcarbamate], the half-inhibitory concentration (IC50) was found to be 15.9 nM.

The compound `Cc1cc(Nc2nc(Cl)cn([C@H](COC(=O)Nc3ccccc3)C3CC3)c2=O)c(C)nc1OC(F)F` [Example 14, (S)-2-(5-Chloro-3-(6-(difluoromethoxy)-2,5-dimethylpyridin-3-ylamino)-2-oxopyrazin-1(2H)-yl)-2-cyclopropylethyl phenylcarbamate] registered an IC50 of 0.74 nM.

The subject of another data set is Human Y-79 retinoblastoma cells. Nature of the data set: Functional Assay (Y-79 cells), CRF-stimulated cAMP production (HTRF). In kind it is cell-based. The settings on record: stimulation of cAMP production in Y-79 cells, n=6. The protocol:
Functional Assay (Y-79 cells).
Human Y-79 retinoblastoma cells were suspended in assay buffer (Hank's Balanced Salt Solution containing 2 mM CaCl2, 5 mM MgCl2, 20 mM HEPES, 1 mM IBMX) and plated at 20,000 cells/well in a 96-well black plate. CRF antagonists (typically 0.01 to 10,000 nM) were then added to wells as needed and allowed to equilibrate with the cells for 30 minutes at 37° C. […] The reaction was terminated by the addition of a lysis solution containing homogeneous time resolved florescence (HTRF) cAMP XL665 conjugate followed by HTRF anti-cAMP cryptate conjugate (CIS bio International). Plates were subsequently incubated at room temperature for 1 hour prior to reading the time-resolved fluorescence signal. The amount of cAMP produced was estimated from a standard curve prepared using known concentrations of cAMP. The percentage inhibition of CRF-induced cAMP production was determined for each compound (triplicate determinations). The effect of CRF antagonists on basal cAMP production (i.e. in the absence of CRF) was also determined.
For Corticotropin releasing factor [CRF], the EC50 stood at 1.11 ± 0.14 nM.

Tested on in the next data set: not given
Assay: not given
Settings: not given
`COc1nc(C)c(Nc2nc(Cl)cn([C@H](COC(=O)Nc3cccc(C#N)c3)C3CC3)c2=O)cc1C` [Example 2, (S)-2-(5-Chloro-3-(6-methoxy-2,5-dimethylpyridin-3-ylamino)-2-oxopyrazin-1(2H)-yl)-2-cyclopropylethyl 3-cyanophenylcarbamate] had a melting point of 206.5 to 207.2 °C.

Usually IC50 stands for the concentration needed to halve the response being measured. A low value points to greater potency in that assay. By EC50 is commonly meant the concentration needed to bring the measured effect to its halfway point. High values mean weaker potency, low ones greater potency. As a reminder, the melting point is the temperature of the solid-liquid transition.
